For three compounds, Activity results are on record in ChEMBL document CHEMBL5715954, “Silencing c-Myc translation as a therapeutic strategy through targeting PI3Kδ and CK1ε in hematological malignancies” (Blood, 2017).

What all share (set-up): scale not given: the % may be the effect or the level left
Test [1] concerns the target T1, Dual serine/threonine and tyrosine protein kinase (Homo sapiens) (UniProt Q6XUX3).
T1 sequence (whole entry): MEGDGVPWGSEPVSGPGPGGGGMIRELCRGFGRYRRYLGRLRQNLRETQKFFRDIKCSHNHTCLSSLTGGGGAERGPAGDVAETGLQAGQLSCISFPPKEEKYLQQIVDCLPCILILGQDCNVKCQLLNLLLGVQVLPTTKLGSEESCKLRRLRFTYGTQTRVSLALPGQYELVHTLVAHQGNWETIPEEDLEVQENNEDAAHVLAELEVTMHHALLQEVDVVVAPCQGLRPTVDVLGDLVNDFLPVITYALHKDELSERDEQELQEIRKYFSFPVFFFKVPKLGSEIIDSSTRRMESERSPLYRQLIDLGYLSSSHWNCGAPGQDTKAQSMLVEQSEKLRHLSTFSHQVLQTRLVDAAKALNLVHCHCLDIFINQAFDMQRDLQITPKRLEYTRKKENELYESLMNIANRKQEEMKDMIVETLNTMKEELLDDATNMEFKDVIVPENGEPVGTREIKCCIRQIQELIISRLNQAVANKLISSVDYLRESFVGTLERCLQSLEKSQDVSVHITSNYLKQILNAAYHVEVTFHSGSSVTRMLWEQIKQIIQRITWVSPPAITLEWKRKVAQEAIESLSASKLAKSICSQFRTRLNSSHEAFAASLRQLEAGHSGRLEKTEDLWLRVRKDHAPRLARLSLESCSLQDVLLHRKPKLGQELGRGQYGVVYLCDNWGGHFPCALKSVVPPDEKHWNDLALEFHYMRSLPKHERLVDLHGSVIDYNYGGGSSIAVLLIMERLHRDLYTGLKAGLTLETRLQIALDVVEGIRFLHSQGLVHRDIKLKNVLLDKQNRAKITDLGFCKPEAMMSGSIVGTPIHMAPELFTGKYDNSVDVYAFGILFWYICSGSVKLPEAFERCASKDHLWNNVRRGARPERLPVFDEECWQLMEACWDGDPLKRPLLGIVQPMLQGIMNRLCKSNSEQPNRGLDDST
Description: Inhibition of human RIPK5 assessed as enzyme activity at 1 uM using myelin basic protein as substrate preincubated for 20 mins followed by [gamma-33P]-ATP addition and measured after 120 mins by radiometric Hot-SpotSM Kinase assay relative to control.

Test [2] has as its target T2, Casein kinase I isoform alpha-like (Homo sapiens) (UniProt Q8N752).
T2 sequence (whole entry): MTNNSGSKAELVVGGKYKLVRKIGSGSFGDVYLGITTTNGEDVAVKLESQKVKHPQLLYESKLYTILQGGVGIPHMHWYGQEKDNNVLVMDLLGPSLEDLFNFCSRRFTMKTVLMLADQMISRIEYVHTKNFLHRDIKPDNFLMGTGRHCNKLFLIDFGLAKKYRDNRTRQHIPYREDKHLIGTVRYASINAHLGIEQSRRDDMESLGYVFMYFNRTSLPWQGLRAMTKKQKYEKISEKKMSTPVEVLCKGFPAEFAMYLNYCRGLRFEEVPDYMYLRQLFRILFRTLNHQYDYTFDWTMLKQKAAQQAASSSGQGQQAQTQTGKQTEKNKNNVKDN
Description: Inhibition of human CK1a1L assessed as enzyme activity at 1 uM using KRRRAL[pS]VASLPGL as substrate preincubated for 20 mins followed by [gamma-33P]-ATP addition and measured after 120 mins by radiometric Hot-SpotSM Kinase assay relative to control.

Test [3] has as its target T3, Discoidin domain-containing receptor 2 (Homo sapiens) (UniProt Q16832).
T3 sequence (whole entry): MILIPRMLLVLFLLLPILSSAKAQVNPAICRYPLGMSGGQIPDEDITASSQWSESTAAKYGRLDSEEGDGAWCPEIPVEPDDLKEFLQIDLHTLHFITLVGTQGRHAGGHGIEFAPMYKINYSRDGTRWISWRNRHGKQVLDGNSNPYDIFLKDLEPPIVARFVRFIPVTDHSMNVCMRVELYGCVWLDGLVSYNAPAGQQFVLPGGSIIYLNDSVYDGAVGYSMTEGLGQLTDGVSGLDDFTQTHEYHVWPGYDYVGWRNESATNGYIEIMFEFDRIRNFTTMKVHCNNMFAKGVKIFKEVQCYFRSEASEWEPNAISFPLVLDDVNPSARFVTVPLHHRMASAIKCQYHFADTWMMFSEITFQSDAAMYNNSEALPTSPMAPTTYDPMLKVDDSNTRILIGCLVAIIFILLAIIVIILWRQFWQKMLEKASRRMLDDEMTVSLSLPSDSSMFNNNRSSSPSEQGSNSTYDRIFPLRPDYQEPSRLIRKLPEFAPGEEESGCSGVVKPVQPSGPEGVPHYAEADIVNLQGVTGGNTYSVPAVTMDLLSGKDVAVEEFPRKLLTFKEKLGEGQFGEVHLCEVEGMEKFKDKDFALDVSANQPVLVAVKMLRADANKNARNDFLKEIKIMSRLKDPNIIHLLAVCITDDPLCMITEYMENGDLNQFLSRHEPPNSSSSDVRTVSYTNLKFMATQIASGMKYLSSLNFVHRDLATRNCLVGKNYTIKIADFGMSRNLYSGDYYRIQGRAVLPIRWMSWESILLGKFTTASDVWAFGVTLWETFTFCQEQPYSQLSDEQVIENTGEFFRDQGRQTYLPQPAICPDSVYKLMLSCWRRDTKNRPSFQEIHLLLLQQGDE
The experiment in a line: Inhibition of human DDR2 assessed as enzyme activity at 1 uM using KKSRGDYMTMQIG as substrate preincubated for 20 mins followed by [gamma-33P]-ATP addition and measured after 120 mins by radiometric Hot-SpotSM Kinase assay relative to control.

Test [4] has as its target T4, Dual specificity mitogen-activated protein kinase kinase 5 (Homo sapiens) (UniProt Q13163).
T4 sequence (whole entry): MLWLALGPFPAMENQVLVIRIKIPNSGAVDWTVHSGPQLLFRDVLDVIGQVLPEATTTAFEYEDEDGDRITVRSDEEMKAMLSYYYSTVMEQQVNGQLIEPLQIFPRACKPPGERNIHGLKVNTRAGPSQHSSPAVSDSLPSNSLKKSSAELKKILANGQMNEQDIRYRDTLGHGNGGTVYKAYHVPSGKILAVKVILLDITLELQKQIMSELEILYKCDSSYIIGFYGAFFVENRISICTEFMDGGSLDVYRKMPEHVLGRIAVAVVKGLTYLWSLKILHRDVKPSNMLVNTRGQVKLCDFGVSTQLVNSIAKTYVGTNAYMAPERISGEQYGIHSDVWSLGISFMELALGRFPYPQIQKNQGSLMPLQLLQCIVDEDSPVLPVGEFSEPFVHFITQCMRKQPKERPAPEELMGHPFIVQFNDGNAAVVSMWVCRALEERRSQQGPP
Description: Inhibition of human MEK5 assessed as enzyme activity at 1 uM using ERK5 (K84R) as substrate preincubated for 20 mins followed by [gamma-33P]-ATP addition and measured after 120 mins by radiometric Hot-SpotSM Kinase assay relative to control.

The target in test [5] is Mitogen-activated protein kinase kinase kinase kinase 1 (Homo sapiens) (UniProt Q92918). Description: Inhibition of human HPK1 assessed as enzyme activity at 1 uM using myelin basic protein as substrate preincubated for 20 mins followed by [gamma-33P]-ATP addition and measured after 120 mins by radiometric Hot-SpotSM Kinase assay relative to control.
Chain of Mitogen-activated protein kinase kinase kinase kinase 1 (Homo sapiens) (Q92918 whole entry, looked up): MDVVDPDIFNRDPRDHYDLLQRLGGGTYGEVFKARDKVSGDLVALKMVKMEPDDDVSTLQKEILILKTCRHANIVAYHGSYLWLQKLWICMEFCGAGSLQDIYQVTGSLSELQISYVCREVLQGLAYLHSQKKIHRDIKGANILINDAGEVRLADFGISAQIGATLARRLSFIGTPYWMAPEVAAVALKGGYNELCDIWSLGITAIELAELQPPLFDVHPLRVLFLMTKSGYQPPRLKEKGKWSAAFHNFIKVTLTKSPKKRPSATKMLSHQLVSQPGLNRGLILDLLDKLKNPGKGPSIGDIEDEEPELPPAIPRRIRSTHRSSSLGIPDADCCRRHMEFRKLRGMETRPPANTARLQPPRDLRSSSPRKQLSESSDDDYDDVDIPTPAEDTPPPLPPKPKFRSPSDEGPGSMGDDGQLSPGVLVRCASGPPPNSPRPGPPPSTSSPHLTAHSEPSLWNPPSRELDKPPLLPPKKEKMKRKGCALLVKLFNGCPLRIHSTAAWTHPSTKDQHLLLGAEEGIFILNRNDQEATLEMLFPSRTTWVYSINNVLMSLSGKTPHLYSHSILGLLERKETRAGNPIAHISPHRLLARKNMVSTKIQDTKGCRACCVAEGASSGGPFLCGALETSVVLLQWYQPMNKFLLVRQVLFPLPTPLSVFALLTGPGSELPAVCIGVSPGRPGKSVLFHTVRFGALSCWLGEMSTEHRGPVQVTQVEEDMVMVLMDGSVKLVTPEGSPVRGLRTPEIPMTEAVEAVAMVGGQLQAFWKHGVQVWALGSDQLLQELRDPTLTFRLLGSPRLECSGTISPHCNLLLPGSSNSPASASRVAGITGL

For `C[C@H](Nc1ncnc2nc[nH]c12)c1cc2cccc(Cl)c2c(=O)n1-c1ccccc1`, the Activity stood at 96% in test [1]; 99.5% in test [2]; 110% in test [3]; 105% in test [4]; 104% in test [5].

As to `CC[C@H](Nc1ncnc2[nH]cnc12)c1nc2cccc(F)c2c(=O)n1-c1ccccc1`, the Activity in test [1] was 90%; in test [2], 101%; in test [3] it was 106%; in test [4], 104%; in test [5] it was 98%.

For `CC(C)Oc1ccc(-c2nn([C@@H](C)c3oc4ccc(F)cc4c(=O)c3-c3cccc(F)c3)c3ncnc(N)c23)cc1F` [UMBRALISIB], the Activity is 90.7% in test [1]; 103% in test [2]; 104% in test [3]; 102% in test [4]; 105% in test [5].
